Results on 32 molecules are retold here after patent US20220298135A1, “5-HETEROARYL-PYRIDIN-2-AMINE COMPOUNDS AS NEUROPEPTIDE FF RECEPTOR ANTAGONISTS” (Domain Therapeutics, priority 2019, published 2022).

Molecules are shown by their SMILES.

For data set [1], the target named is T1, human NPFFR1 (hNPFFR1) receptor (Homo sapiens, UniProt Q9GZQ6).
T1 construct: expressed in transfected cells; host or cells: HEK-293 T cells, transient co-transfection with polyethylenimine
Put plainly: Human NPFFR1 evaluation using BRET biosensors (antagonist IC50). In kind it is cell-based. The following applies: hNPFFR1 transiently over-expressed in HEK-293 T cells; BRET signal; stimulation by EC80 RFRP-3. As to the method: Compounds of the present invention were tested successively for their agonist and antagonist activities on human NPFFR1 (hNPFFR1) receptor transiently over-expressed in HEK-293 T cells. Compounds exert agonist activity if, by themselves in absence of neuropeptide RFRP-3 (also named NPVF) they activate hNPFFR1; and they exert antagonist activity if they decrease the action of RFRP-3 on the receptor.
The assay used to measure compound activity is based on BRET (Bioluminescence Resonance Energy Transfer) biosensors and is designed to monitor the plasma membrane translocation of protein that interacts with specific Ga subunit. The specific effector (luciferase tagged: BRET donor) recruited at the membrane will be in close proximity to a plasma membrane anchor (GFP tagged: BRET acceptor) to induce a BRET signal. Biosensors are described in the patent application WO 2016/041093 A1 (Biosensors for monitoring biomolecule localization and trafficking in cells).
HEK-293 T cells are maintained in Dulbecco's Modified Eagle's Medium supplemented with 10% Foetal Calf Serum, 1% Penicillin/Streptomycin at 37° C./5% CO2.
Cells are co-transfected using polyethylenimine (25 kDa linear) with four DNA plasmids encoding: hNPFFR1, GαoB, a Gi family specific intracellular effector fused to luciferase (BRET donor), a plasma membrane effector fused to GFP (BRET acceptor). After transfection, cells are cultured for 48 h at 37° C./5% CO2.
Receptor activity is detected by changes in BRET signal.
On the day of the assay, cells are detached using trypsin 0.05%, resuspended in assay buffer (1.8 mM CaCl2, 1 mM MgCl2, 2.7 mM KCl, 137 mM NaCl, 0.4 mM NaH2PO4, 5.5 mM D-Glucose, 11.9 mM NaHCO3, 25 mM Hepes) and seeded in 384 well plate at a density of 20,000 cells per well. Then, plates are equilibrated 3.5 hours at 37° C. before adding compounds.
Compounds and luciferase substrate are added to the cells using an automated device (Freedom Evo®, Tecan) and BRET readings are collected on EnVision (PerkinElmer) with specific filters (410 nm BW 80 nm, 515 nm BW 30 nm).
Agonist and antagonist activities of compounds are consecutively evaluated on the same cell plate. Agonist activity is first measured after 10 minutes incubation with compound alone on the cells. Then, cells are stimulated by an EC80 RFRP-3 concentration and luminescence is recorded for additional 10 minutes. EC80 RFRP-3 concentration is the concentration giving 80% of the maximal RFRP-3 response. Agonist or antagonist activities are evaluated in comparison to basal signals evoked by assay buffer or EC80 RFRP-3 alone, respectively.
For IC50 determination, a dose-response test is performed using 20 concentrations (ranging over 6 logs) of each compound. Dose-response curves are fitted using the sigmoidal dose-response (variable slope) analysis in GraphPad Prism software (GraphPad Software) and IC50 of antagonist activity is calculated. Dose-response experiments are performed in duplicate, in two independent experiments.

By IC50 is commonly meant the point on the concentration scale where inhibition reaches its midpoint. Broadly, the melting point is the temperature of the solid-liquid transition.

T1 sequence (Q9GZQ6 whole entry): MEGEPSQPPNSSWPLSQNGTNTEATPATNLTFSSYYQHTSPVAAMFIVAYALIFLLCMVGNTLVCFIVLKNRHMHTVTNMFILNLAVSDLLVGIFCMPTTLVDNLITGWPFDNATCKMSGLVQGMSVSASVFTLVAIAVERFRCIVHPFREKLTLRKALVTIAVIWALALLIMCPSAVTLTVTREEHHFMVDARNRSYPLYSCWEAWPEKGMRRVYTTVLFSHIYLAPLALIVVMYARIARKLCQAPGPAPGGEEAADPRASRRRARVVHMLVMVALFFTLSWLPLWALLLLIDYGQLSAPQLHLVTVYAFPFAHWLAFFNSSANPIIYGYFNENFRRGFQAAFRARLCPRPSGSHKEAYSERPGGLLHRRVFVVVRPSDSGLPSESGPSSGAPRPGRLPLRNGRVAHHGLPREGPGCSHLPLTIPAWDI

In the case of `CCc1nc(N)ccc1-c1cccc2ccncc12.Cl` [Example 6, 6-Ethyl-5-(8-isoquinolyl)pyridin-2-amine], the melting point was greater than 250 °C. For the same molecule, the IC50 in data set [1] is less than 100 nM.
For `CCc1nc(N)ccc1-c1cccc2nccn12.Cl` [Example 103, 6-ethyl-5-(imidazo[1,2-a]pyridin-5-yl)pyridin-2-amine], in that order: 115 to 155 °C and greater than 1000 nM.
For `CCc1nc(N)ccc1-c1cccc2ccc(C(=O)N3CCCCCC3)nc12.Cl` [Example 169, (8-(6-amino-2-ethylpyridin-3-yl)quinolin-2-yl)(azepan-1-yl)methanone], in that order: 140 to 144 °C and less than 100 nM.
With `Nc1ccc(-c2c[nH]c3ccccc23)c(N)n1` [Example 18, 3-(1H-indol-3-yl)pyridine-2,6-diamine], the melting point is 152 to 155 °C. Further, the concentration for half-maximal inhibition (IC50) in data set [1] is greater than 1000 nM.
As for `CCc1nc(N)ccc1-c1cccc2ccc(C3CCOCC3)nc12.Cl` [Example 121, 6-ethyl-5-(2-(tetrahydro-2H-pyran-4-yl)quinolin-8-yl)pyridin-2-amine], the melting point was in the range of 175 to 185 °C. The IC50 in data set [1] was less than 100 nM.
In the case of `Cl.Nc1ccc(-c2cccc3c2oc2ccccc23)c(N)n1` [Example 40, 3-Dibenzofuran-4-ylpyridine-2,6-diamine], the melting point was 135 to 143 °C. The molecule also showed a half-maximal inhibitory concentration (IC50) in data set [1] of less than 100 nM.
For the molecule `CCc1nc(N)ccc1-c1cccc2c1N(C)CCC2.Cl` [Example 165, 6-ethyl-5-(1-methyl-1,2,3,4-tetrahydroquinolin-8-yl)pyridin-2-amine], the melting point was in the range of 155 to 165 °C. Further, the IC50 in data set [1] is 100 to 1000 nM.
For `CCc1nc(N)ccc1-c1cccc2ccc(C(=O)N3CCC(c4ccccc4)CC3)nc12.Cl` [Example 172, (8-(6-amino-2-ethylpyridin-3-yl)quinolin-2-yl)(4-phenylpiperidin-1-yl)methanone], in that order: greater than 250 °C and 100 to 1000 nM.
On to `CCc1nc(N)ccc1-c1c(F)ccc2ccc(C)nc12.Cl` [Example 76, 6-ethyl-5-(7-fluoro-2-methylquinolin-8-yl)pyridin-2-amine], for which the melting point was 95 to 120 °C. Also, the half-maximal inhibitory concentration (IC50) in data set [1] is less than 100 nM.
Consider `CCc1nc(N)ccc1-c1csc2ccc(F)cc12.Cl` [Example 43, 6-Ethyl-5-(5-fluorobenzothiophen-3-yl)pyridin-2-amine], for which the melting point was greater than 250 °C. The IC50 in data set [1] is 100 to 1000 nM.
For `CCc1nc(N)ccc1-c1ccccc1-c1ccc(O)nc1.Cl` [Example 88, 5-(2-(6-amino-2-ethylpyridin-3-yl)phenyl)pyridin-2-ol], in that order: 95 to 120 °C and 100 to 1000 nM.
The molecule `CCc1nc(N)ccc1-c1c(F)c(F)cc2cc(F)cnc12.Cl` [Example 150, 6-ethyl-5-(3,6,7-trifluoroquinolin-8-yl)pyridin-2-amine] had a melting point of 120 to 130 °C. Also, the IC50 in data set [1] was less than 100 nM.
Turning to `Nc1ccc(-c2csc3ccc(F)cc23)c(N)n1` [Example 22, 3-(5-Fluoro-benzo[b]thiophen-3-yl)pyridine-2,6-diamine], the melting point was in the range of 116 to 118 °C. The same molecule yielded an IC50 in data set [1] of 100 to 1000 nM.
For `CCc1nc(N)ccc1-c1ccc(F)c2cccnc12.Cl` [Example 1, 6-ethyl-5-(5-fluoroquinolin-8-yl)pyridin-2-amine], in that order: 120 to 140 °C and less than 100 nM.
Take `CCc1nc(N)ccc1-c1c(F)cc(F)c2cccnc12.Cl` [Example 108, 5-(5,7-difluoroquinolin-8-yl)-6-ethylpyridin-2-amine]: the melting point lay in the range of 126 to 136 °C. For the same molecule, the concentration for half-maximal inhibition (IC50) in data set [1] is less than 100 nM.
Take `CCc1nc(N)ccc1-c1c(C(N)=O)ccc2cccnc12.Cl` [Example 152, 8-(6-amino-2-ethylpyridin-3-yl)quinoline-7-carboxamide]: the melting point fell in the range of 150 to 164 °C. The same molecule came in with an IC50 in data set [1] greater than 1000 nM.
`CCc1nc(N)ccc1-c1ccccc1-c1ccc(N2CCCCC2)nc1.Cl` [Example 80, 6-ethyl-5-(2-(6-(piperidin-1-yl)pyridin-3-yl)phenyl)pyridin-2-amine]: the melting point is 50 to 80 °C. The same molecule showed a half-inhibitory concentration (IC50) in data set [1] of 100 to 1000 nM.
The molecule `Cl.Nc1ccc(-c2cccc3ccsc23)c(N)n1` [Example 29, 3-(Benzothiophen-7-yl)pyridine-2,6-diamine] registered a melting point of 100 to 113 °C. In data set [1], this molecule returned a half-maximal inhibitory concentration (IC50) of 100 to 1000 nM.
In turn, `CCc1nc(N)ccc1-c1c(F)ccc2c1OC(C)(C)CC2.Cl` [Example 177, 6-ethyl-5-(7-fluoro-2,2-dimethylchroman-8-yl)pyridin-2-amine] yielded a melting point of 80 to 90 °C. This molecule also had an IC50 in data set [1] of less than 100 nM.
In turn, `CCc1nc(N)ccc1-c1ccccc1-c1cncc(C)c1.Cl` [Example 85, 6-ethyl-5-(2-(5-methylpyridin-3-yl)phenyl)pyridin-2-amine] came in with a melting point of 120 to 150 °C. This molecule also displayed an IC50 in data set [1] of 100 to 1000 nM.
For `CN1Cc2c(cccc2-c2ccc(N)nc2N)C1=O` [Example 27, 4-(2,6-Diamino-3-pyridyl)-2-methyl-isoindolin-1-one], the melting point is greater than 250 °C. In data set [1], this molecule yielded an IC50 greater than 1000 nM.
`Cl.Nc1ccc(-c2cccc3c2OCC3)c(N)n1` [Example 28, 3-(2,3-Dihydrobenzofuran-7-yl)pyridine-2,6-diamine] showed a melting point greater than 250 °C. The molecule also came in with an IC50 in data set [1] of 100 to 1000 nM.
With `CCc1nc(N)ccc1-c1cccc2ccc(C(=O)N3CC4CCC(C3)O4)nc12.Cl` [Example 171, (8-(6-amino-2-ethylpyridin-3-yl)quinolin-2-yl)(8-oxa-3-azabicyclo[3.2.1]octan-3-yl)methanone], the melting point was 150 to 160 °C. The IC50 in data set [1] was less than 100 nM.
As for `CCc1nc(N)ccc1-c1cccc2c1NCCC2.Cl` [Example 106, 6-ethyl-5-(1,2,3,4-tetrahydroquinolin-8-yl)pyridin-2-amine], the melting point was in the range of 147 to 160 °C. In data set [1], the IC50 lay in the range of 100 to 1000 nM.
In the case of `Cl.Nc1ccc(-c2cccc3c2OCCO3)c(N)n1` [Example 38, 3-(2,3-Dihydro-benzo[1,4]dioxin-5-yl)-pyridine-2,6-diamine], the melting point is 99 to 110 °C. In data set [1], this molecule registered an IC50 of 100 to 1000 nM.
Regarding `CCc1nc(N)ccc1-c1cccc2c1NC(=O)C2.Cl` [Example 163, 7-(6-amino-2-ethylpyridin-3-yl)indolin-2-one], the melting point is greater than 250 °C. This molecule displayed a concentration for half-maximal inhibition (IC50) in data set [1] of 100 to 1000 nM.
`Nc1ccc(-c2ccnc3ccccc23)c(N)n1` [Example 35, 3-Quinolin-4-yl-pyridine-2,6-diamine] came in with a melting point greater than 250 °C. The IC50 in data set [1] was greater than 1000 nM.
`CCc1nc(N)ccc1-c1c(F)ccc2ccc(=O)[nH]c12.Cl` [Example 158, 8-(6-amino-2-ethylpyridin-3-yl)-7-fluoroquinolin-2(1H)-one] came in with a melting point of 172 to 208 °C. In data set [1], this molecule returned an IC50 of 100 to 1000 nM.
Molecule `CCc1nc(N)ccc1-c1cc(F)ccc1-c1ccc(N2CCOCC2)nc1.Cl` [Example 83, 6-ethyl-5-(5-fluoro-2-(6-morpholinopyridin-3-yl)phenyl)pyridin-2-amine] returned a melting point of 85 to 100 °C. Also, the IC50 in data set [1] is 100 to 1000 nM.
For `CCc1nc(N)ccc1-c1cccc2ccc(-c3ccncc3)nc12.Cl` [Example 122, 6-ethyl-5-(2-(pyridin-4-yl)quinolin-8-yl)pyridin-2-amine], in that order: greater than 250 °C and less than 100 nM.
With `CCc1nc(N)ccc1-c1ccccc1-c1cccnc1.Cl` [Example 44, 6-Ethyl-5-[2-(3-pyridyl)phenyl]pyridin-2-amine], the melting point is greater than 250 °C. In data set [1], this molecule showed an IC50 of 100 to 1000 nM.
For `CCc1nc(N)ccc1-c1ccccc1-c1ccc(N2CCOCC2)nc1.Cl` [Example 84, 6-ethyl-5-(2-(6-morpholinopyridin-3-yl)phenyl)pyridin-2-amine], in that order: 95 to 110 °C and less than 100 nM.
